Data on 8 molecules can be found in US20110190165A1, “HIGH THROUGHPUT METHODS OF IDENTIFYING NEUTRAL LIPID SYNTHASES” (priority 2008, published 2011).

Structures are written as SMILES.

For data set [1], the system named is ACAT. To be noted: ACAT1 vs ACAT2; cited from earlier work.
The conditions of data set [2]: tested in humans; cited from earlier work.
In data set [3] the test system is quadruple knock-out strain cultures harboring vector with either DGAT1 or LacZ gene. Kind of data set: Growth of quadruple knock-out yeast expressing DGAT1 or LacZ on solid medium supplemented with fatty acids. The class given is cell-based, Saccharomyces cerevisiae. To be noted: for selectivity of the media at lowered concentration: 0.5 mM fatty acid; for suitability for selection: 0.5 mM (500 μM) fatty acid; for growth of DGAT1 and LacZ cultures: 1 mM fatty acid. The method, then:
(A) Plates of YNBG with and without supplement of 1 mM of oleic acid (C18:1) dissolved in ethanol. The plate without FA contained the same volume of ethanol only. (B) Plates of YNBG supplemented with 1 mM of palmitoleic (16:1^cisΔ9), linoleic (18:2^cisΔ9,12), α-linolenic (C18:3), docosahexaenoic (C22:6), ricinoleic (C18:1 OH), erucic (C22:1) and 0.5 mM of palmitic (C16:0) and stearic (C18:0) acids. The FAs were dissolved in ethanol at 0.5M or 0.25M and added to the YNBG prior to plating. (C) Plates supplemented with oleic, α-linolenic and docosahexaenoic acids at the final concentrations indicated. (D) Selection of yeast cells in medium with FA after transformation. H1246 cells were transformed with 1 μg of pYESBnDGAT1 (column 1), 1 μg of pYESLacZ (column 2) and 0.1 μg of pYESBnDGAT1 mixed with 0.9 μg of pYESLacZ (column 3). After transformation, yeast cells were recovered in liquid YNBD medium for 6 hours, inoculated in YNBG plates with or without supplement of 1 mM oleic acid and incubated at 30° C. for 6 days.

The test system of data set [4] is S. cerevisiae strain H1246 (quadruple knock-out). The data set can be described thus: Growth of knock-out yeast in liquid medium supplemented with oleic acid. To be noted: growth measured for 72 hours.
Description: Oleic acid, dissolved in ethanol at 0.5M, was supplemented to the cultures at the final concentrations indicated. The cultures were incubated at 30 °C, 250 rpm and the growth was monitored for 72 hours.
Three yeast strains (wild type, dga1 knock-out and quadruple knock-out) were transformed with yeast expression vector pYES2.1-TOPO (Invitrogen) containing a cDNA coding for DGAT1 from several oilseed plants (canola, flax or castor bean). The same vector containing the gene coding for the bacterial protein LacZ served as the negative control. Transformed yeast cells were cultivated in 50 mL of uracil drop-out medium supplemented with 2% glucose for 48 hours shaking at 30° C. and 250 rpm. The cells were washed twice with water and inoculated in liquid media supplemented with 2% galactose, 1% raffinose to induce the expression of the recombinant proteins, and different concentrations of free fatty acids (0 to 1000 μM of oleic acid). […] Cell growth was measured for a period of 72 hours.

For the molecule `CC(C)c1cc(C(C)C)c(CC(=O)NS(=O)(=O)Oc2c(C(C)C)cccc2C(C)C)c(C(C)C)c1` [avasimibe], the “selectivity among ACAT isoforms” value in data set [1] was “nonselective ACAT inhibitors”. In data set [2], the efficacy against atherosclerosis result is recorded as “ineffective against atherosclerosis” and the harm entry is reported as “probably harmful due to ACAT1 inhibition”.

For `CCCCCCCC/C=C\CCCCCCCCCCCC(=O)O` [erucic, erucic acid], the “selectivity of the media at lowered concentration” value in data set [3] is recorded as “did not substantially improve the selectivity”.

With `CCCCC/C=C\C/C=C\CCCCCCCC(=O)O` [linoleic, linoleic acid], in data set [3], the suitability for selection result is recorded as “suitable for selection”; the “growth of DGAT1 and LacZ cultures” value is “inhibited the growth of both cultures”.

For the molecule `CCCCCCCC/C=C\CCCCCCCC(=O)O` [oleic acid], the “concentration most effective in distinguishing strains with and without TAG synthase activity” value in data set [4] is 1000 µM. Besides, in data set [4] (knock-out strains without recombinant DGAT1), the “lowest concentration at which the inhibitory effect on growth was observed” value was 25 µM. Further, in data set [3] (1000 μM oleic acid, five days at 30° C., DGAT1 vs LacZ), the “colony formation on solid medium” value was “only the cells expressing the recombinant DGAT1 formed visible colonies”.

Consider `CCCCCCCCN1CCc2c(C)c(CC(=O)O)c(C)c(NC(=O)C(C)(C)C)c21` [pactimibe], for which the “selectivity among ACAT isoforms” value in data set [1] was “nonselective ACAT inhibitors”. Moreover, in data set [2], the efficacy against atherosclerosis result is recorded as “ineffective against atherosclerosis” and the harm result is “probably harmful due to ACAT1 inhibition”.

For `CCCCCCCCCCCCCCCC(=O)O` [palmitic, palmitic acid], in data set [3], the “selectivity of the media at lowered concentration” value was “did not substantially improve the selectivity”.

In the case of `CCCCCCCCCCCCCCCCCC(=O)O` [stearic, stearic acid], the “selectivity of the media at lowered concentration” value in data set [3] is listed as “did not substantially improve the selectivity”.

Turning to `CC/C=C\C/C=C\C/C=C\CCCCCCCC(=O)O` [α-linolenic, α-linolenic acid], in data set [3], the suitability for selection entry was “suitable for selection”; the “growth of DGAT1 and LacZ cultures” value is “inhibited the growth of both cultures”.
